Test results taken from patent US9795139B2, “Molecules having pesticidal utility, and intermediates, compositions, and processes, related thereto” (priority 2015, dated 2017).

Experiments:
[1] = system: Beet Armyworm (Spodoptera exigua, LAPHEG); assay: Bioassay on Beet Armyworm (BAW), 128-well diet tray assay; assay type: in vivo; conditions: 168 h, 50 μg/cm^2 on artificial diet, second instar larvae, 25° C., five to seven days, average of eight wells, read-out: BAW % Control (or Mortality) rating
Protocol: (§1) Certain molecules disclosed in this document were tested against BAW and CL using procedures described in the following examples. In the reporting of the results, the “BAW & CL Rating Table” was used (See Table Section).
Bioassays on BAW were conducted using a 128-well diet tray assay. One to five second instar BAW larvae were placed in each well (3 mL) of the diet tray that had been previously filled with approximately 1.5 mL of artificial diet to which 50 μg/cm^2 of the test molecule (dissolved in 50 μL of 90:10 acetone-water mixture) had been applied (to each of eight wells) and then allowed to dry. Trays were covered with a clear self-adhesive cover, vented to allow gas exchange, and held at 25° C., 14:10 light-dark for five to seven days. Percent mortality was recorded for the larvae in each well; activity in the eight wells was then averaged. The results are indicated in the table entitled “Table ABC: Biological Results” (See Table Section).

[2] = system: Cabbage Looper (Trichoplusia ni, TRIPNI); assay: Bioassay on Cabbage Looper (CL), 128-well diet tray assay; assay type: in vivo; conditions: 168 h, 50 μg/cm^2 on artificial diet, second instar larvae, 25° C., five to seven days, average of eight wells, read-out: CL % Control (or Mortality) rating
Protocol: as §1
Bioassays on CL were conducted using a 128-well diet tray assay. one to five second instar CL larvae were placed in each well (3 mL) of the diet tray that had been previously filled with 1 mL of artificial diet to which 50 μg/cm^2 of the test molecule (dissolved in 50 μL of 90:10 acetone-water mixture) had been applied (to each of eight wells) and then allowed to dry. Trays were covered with a clear self-adhesive cover, vented to allow gas exchange, and held at 25° C., 14:10 light-dark for five to seven days. Percent mortality was recorded for the larvae in each well; activity in the eight wells was then averaged. The results are indicated in the table entitled “Table ABC: Biological Results” (See Table Section).

`O=C(NC1CC(F)(F)C1)c1cc(NC(=O)[C@H]2[C@H](c3cc(Cl)c(Cl)c(Cl)c3)C2(Cl)Cl)ccc1Cl` (relative stereo) [Molecule F6, trans-2-Chloro-5-(2,2-dichloro-3-(3,4,5-trichlorophenyl)cyclopropanecarboxamido)-N-(3,3-difluorocyclobutyl)benzamide] gave a mortality at 50 µg/cm2 [1] of 50 to 100% and a mortality at 50 µg/cm2 [2] of 50 to 100%.
With `O=C(NC1CCSC1)c1cc(NC(=O)[C@H]2[C@H](c3cc(Cl)cc(Cl)c3)C2(Cl)Cl)ccc1Cl` (relative stereo) [Molecule F7, trans-2-Chloro-5-(2,2-dichloro-3-(3,5-dichlorophenyl)cyclopropanecarboxamido)-N-(tetrahydrothiophen-3-yl)benzamide] the mortality at 50 µg/cm2 [1] was 50 to 100% and the mortality at 50 µg/cm2 [2] was 50 to 100%.
`O=C(NC1CC(F)(F)C1)c1cc(NC(=O)[C@H]2[C@H](c3cc(Cl)c(Cl)cc3Cl)C2(Cl)Cl)ccc1Cl` (relative stereo) [Molecule F20, trans-2-Chloro-5-(2,2-dichloro-3-(2,4,5-trichlorophenyl)cyclopropanecarboxamido)-N-(3,3-difluorocyclobutyl)benzamide] was tested, and the mortality at 50 µg/cm2 [1] was 50 to 100% and the mortality at 50 µg/cm2 [2] was 50 to 100%.
`N#CC1(NC(=O)c2cc(NC(=O)[C@H]3[C@H](c4ccc(C(F)(F)F)cc4)C3(Cl)Cl)ccc2Cl)CC1` (relative stereo) [Molecule F23, trans-2-Chloro-N-(1-cyanocyclopropyl)-5-(2,2-dichloro-3-(4-(trifluoromethyl)phenyl)cyclopropanecarboxamido)benzamide] gave a mortality at 50 µg/cm2 [1] of 50 to 100% and a mortality at 50 µg/cm2 [2] of 50 to 100%.
With `O=C(NC1CC(F)(F)C1)c1cc(NC(=O)[C@H]2[C@H](c3cc(C(F)(F)F)cc(C(F)(F)F)c3)C2(Cl)Cl)ccc1Cl` (relative stereo) [Molecule F24, trans-5-(3-(3,5-Bis(trifluoromethyl)phenyl)-2,2-dichlorocyclopropanecarboxamido)-2-chloro-N-(3,3-difluorocyclobutyl)benzamide] the mortality at 50 µg/cm2 [1] was 50 to 100% and the mortality at 50 µg/cm2 [2] was 50 to 100%.
`N#CC1(NC(=O)c2cc(NC(=O)[C@H]3[C@H](c4cc(C(F)(F)F)cc(C(F)(F)F)c4)C3(Cl)Cl)ccc2Cl)CC1` (relative stereo) [Molecule F25, trans-5-(3-(3,5-Bis(trifluoromethyl)phenyl)-2,2-dichlorocyclopropanecarboxamido)-2-chloro-N-(1-cyanocyclopropyl)benzamide] showed a mortality at 50 µg/cm2 [1] of 50 to 100% and a mortality at 50 µg/cm2 [2] of 50 to 100%.
`O=C(NC1CC(F)(F)C1)c1cc(NC(=O)[C@H]2[C@H](c3cc(Cl)cc(C(F)(F)F)c3)C2(Cl)Cl)ccc1Cl` (relative stereo) [Molecule F26, trans-2-Chloro-5-(2,2-dichloro-3-(3-chloro-5-(trifluoromethyl)phenyl)cyclopropanecarboxamido)-N-(3,3-difluorocyclobutyl)benzamide] showed a mortality at 50 µg/cm2 [1] of 50 to 100% and a mortality at 50 µg/cm2 [2] of 50 to 100%.
Work on `N#CC1(NC(=O)c2cc(NC(=O)[C@H]3[C@H](c4cc(Cl)cc(C(F)(F)F)c4)C3(Cl)Cl)ccc2Cl)CC1` (relative stereo) [Molecule F27, trans-2-Chloro-N-(1-cyanocyclopropyl)-5-(2,2-dichloro-3-(3-chloro-5-(trifluoromethyl)phenyl)cyclopropanecarboxamido)benzamide] yielded a mortality at 50 µg/cm2 [1] of 50 to 100% and a mortality at 50 µg/cm2 [2] of 50 to 100%.
Work on `O=C(NC1CC(F)(F)C1)c1cc(NC(=O)[C@H]2[C@H](c3cc(Br)cc(Br)c3)C2(Cl)Cl)ccc1Cl` (relative stereo) [Molecule F28, trans-2-Chloro-5-(2,2-dichloro-3-(3,5-dibromophenyl)cyclopropanecarboxamido)-N-(3,3-difluorocyclobutyl)benzamide] yielded a mortality at 50 µg/cm2 [1] of 50 to 100% and a mortality at 50 µg/cm2 [2] of 50 to 100%.
Compound `N#CC1(NC(=O)c2cc(NC(=O)[C@H]3[C@H](c4cc(Br)cc(Br)c4)C3(Cl)Cl)ccc2Cl)CC1` (relative stereo) [Molecule F29, trans-2-Chloro-N-(1-cyanocyclopropyl)-5-(2,2-dichloro-3-(3,5-dibromophenyl)cyclopropanecarboxamido)benzamide] has a mortality at 50 µg/cm2 [1] of 50 to 100% and a mortality at 50 µg/cm2 [2] of 50 to 100%.
Compound `O=C(NC1CC(F)(F)C1)c1cc(NC(=O)[C@H]2[C@H](c3cc(Cl)c(F)c(Cl)c3)C2(Cl)Cl)ccc1Cl` (relative stereo) [Molecule F30, trans-2-Chloro-5-(2,2-dichloro-3-(3,5-dichloro-4-fluorophenyl)cyclopropanecarboxamido)-N-(3,3-difluorocyclobutyl)benzamide] has a mortality at 50 µg/cm2 [1] of 50 to 100% and a mortality at 50 µg/cm2 [2] of 50 to 100%.
`N#CC1(NC(=O)c2cc(NC(=O)[C@H]3[C@H](c4cc(Cl)c(F)c(Cl)c4)C3(Cl)Cl)ccc2Cl)CC1` (relative stereo) [Molecule F31, trans-2-Chloro-N-(1-cyanocyclopropyl)-5-(2,2-dichloro-3-(3,5-dichloro-4-fluorophenyl)cyclopropanecarboxamido)benzamide] gave a mortality at 50 µg/cm2 [1] of 50 to 100% and a mortality at 50 µg/cm2 [2] of 50 to 100%.
With `O=C(NC1CC(F)(F)C1)c1cc(NC(=O)[C@H]2[C@H](c3ccccc3)C2(Cl)Cl)ccc1Cl` (relative stereo) [Molecule F37, trans-2-Chloro-5-(2,2-dichloro-3-phenylcyclopropanecarboxamido)-N-(3,3-difluorocyclobutyl)benzamide] the mortality at 50 µg/cm2 [1] was 50 to 100% and the mortality at 50 µg/cm2 [2] was 50 to 100%.
Compound `N#CC1(NC(=O)c2cc(NC(=O)[C@H]3[C@H](c4ccccc4)C3(Cl)Cl)ccc2Cl)CC1` (relative stereo) [Molecule F38, trans-2-Chloro-N-(1-cyanocyclopropyl)-5-(2,2-dichloro-3-phenylcyclopropanecarboxamido)benzamide] has a mortality at 50 µg/cm2 [1] of 50 to 100% and a mortality at 50 µg/cm2 [2] of 50 to 100%.
`Cc1cc(Cl)cc([C@H]2[C@H](C(=O)Nc3ccc(Cl)c(C(=O)NC4(C#N)CC4)c3)C2(Cl)Cl)c1` (relative stereo) [Molecule F47, trans-2-Chloro-N-(1-cyanocyclopropyl)-5-(2,2-dichloro-3-(3-chloro-5-methylphenyl)cyclopropanecarboxamido)benzamide] was tested, and the mortality at 50 µg/cm2 [1] was 50 to 100% and the mortality at 50 µg/cm2 [2] was 50 to 100%.
In the case of `Cc1c(Cl)cc([C@H]2[C@H](C(=O)Nc3ccc(Cl)c(C(=O)NC4(C#N)CC4)c3)C2(Cl)Cl)cc1Cl` (relative stereo) [Molecule F49, trans-2-Chloro-N-(1-cyanocyclopropyl)-5-(2,2-dichloro-3-(3,5-dichloro-4-methylphenyl)cyclopropanecarboxamido)benzamide], the mortality at 50 µg/cm2 [1] is reported as 50 to 100% and the mortality at 50 µg/cm2 [2] is reported as 50 to 100%.
`O=C(NN1CCOCC1)c1cc(NC(=O)[C@H]2[C@H](c3cc(Cl)cc(Cl)c3)C2(Cl)Cl)ccc1Cl` (relative stereo) [Molecule F52, trans-2-Chloro-5-(2,2-dichloro-3-(3,5-dichlorophenyl)cyclopropanecarboxamido)-N-morpholinobenzamide] showed a mortality at 50 µg/cm2 [1] of 50 to 100% and a mortality at 50 µg/cm2 [2] of 50 to 100%.
With `O=C(NC1CS(=O)(=O)C1)c1cc(NC(=O)[C@H]2[C@H](c3cc(Cl)c(Cl)c(Cl)c3)C2(Cl)Cl)ccc1Cl` (relative stereo) [Molecule F58, trans-2-chloro-5-(2,2-dichloro-3-(3,4,5-trichlorophenyl)cyclopropanecarboxamido)-N-(1,1-dioxidothietan-3-yl)benzamide] the mortality at 50 µg/cm2 [1] was 50 to 100% and the mortality at 50 µg/cm2 [2] was 50 to 100%.
